# Data from paper PMC6576746, “Rational discovery of dual-indication multi-target PDE/Kinase inhibitor for precision anti-cancer therapy using structural systems pharmacology” (PLoS Computational Biology, 2019).
# Columns and labels:
# MAP2K5 = target: T1, MAP2K5 (Homo sapiens, UniProt Q13163); assay: KinomeScan competition binding assay; conditions: 10 μM levosimendan
# T1 construct: DiscoverX KinomeScan panel kinase
# [1] = target: T2, RIOK1 (serine/threonine-protein kinase RIOK1) (Homo sapiens, UniProt Q9BRS2); assay: KinomeScan competition binding assay, dose-response; conditions: DiscoverX; Hill equation fit
# T2 construct: DiscoverX KinomeScan panel kinase
# T2 sequence (Q9BRS2 whole entry): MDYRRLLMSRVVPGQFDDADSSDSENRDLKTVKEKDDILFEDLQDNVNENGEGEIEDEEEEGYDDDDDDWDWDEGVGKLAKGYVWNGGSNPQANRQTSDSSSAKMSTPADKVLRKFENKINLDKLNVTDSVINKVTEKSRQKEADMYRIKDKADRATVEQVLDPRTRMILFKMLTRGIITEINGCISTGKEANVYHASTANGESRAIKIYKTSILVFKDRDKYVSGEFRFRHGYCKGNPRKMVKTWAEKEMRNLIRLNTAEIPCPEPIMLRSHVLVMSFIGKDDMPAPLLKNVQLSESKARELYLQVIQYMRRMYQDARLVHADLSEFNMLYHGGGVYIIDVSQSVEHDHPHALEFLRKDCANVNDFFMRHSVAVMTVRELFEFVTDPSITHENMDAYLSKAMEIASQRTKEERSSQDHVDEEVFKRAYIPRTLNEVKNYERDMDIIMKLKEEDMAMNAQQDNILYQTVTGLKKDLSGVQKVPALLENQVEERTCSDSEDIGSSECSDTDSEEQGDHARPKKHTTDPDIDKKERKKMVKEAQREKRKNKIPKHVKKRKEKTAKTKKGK
# PIP5K1A = PIP5K1A (Homo sapiens, UniProt Q99755); assay: KinomeScan competition binding assay; set-up: DiscoverX KinomeScan panel kinase; conditions: 10 μM levosimendan
# Sequence of PIP5K1A (Q99755 whole entry): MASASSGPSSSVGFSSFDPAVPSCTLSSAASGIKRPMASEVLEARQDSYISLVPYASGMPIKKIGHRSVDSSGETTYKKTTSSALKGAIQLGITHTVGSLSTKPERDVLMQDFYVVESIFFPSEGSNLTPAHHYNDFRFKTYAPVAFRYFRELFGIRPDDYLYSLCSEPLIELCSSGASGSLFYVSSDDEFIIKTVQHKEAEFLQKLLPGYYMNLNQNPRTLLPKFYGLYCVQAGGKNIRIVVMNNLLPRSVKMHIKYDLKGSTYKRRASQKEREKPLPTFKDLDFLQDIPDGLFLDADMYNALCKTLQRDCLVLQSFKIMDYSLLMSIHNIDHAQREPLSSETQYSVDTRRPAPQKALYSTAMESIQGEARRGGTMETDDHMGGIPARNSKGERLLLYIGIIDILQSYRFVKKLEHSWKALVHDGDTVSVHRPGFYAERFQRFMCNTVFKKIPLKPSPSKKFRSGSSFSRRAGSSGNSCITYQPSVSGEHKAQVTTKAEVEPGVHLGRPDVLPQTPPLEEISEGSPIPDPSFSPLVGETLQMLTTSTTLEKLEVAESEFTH
# FLT3 = target: T3, FLT3 (Homo sapiens, UniProt P36888); assay: KinomeScan competition binding assay; conditions: 10 μM levosimendan
# T3 construct: DiscoverX KinomeScan panel kinase
# T3 sequence (P36888 27-993): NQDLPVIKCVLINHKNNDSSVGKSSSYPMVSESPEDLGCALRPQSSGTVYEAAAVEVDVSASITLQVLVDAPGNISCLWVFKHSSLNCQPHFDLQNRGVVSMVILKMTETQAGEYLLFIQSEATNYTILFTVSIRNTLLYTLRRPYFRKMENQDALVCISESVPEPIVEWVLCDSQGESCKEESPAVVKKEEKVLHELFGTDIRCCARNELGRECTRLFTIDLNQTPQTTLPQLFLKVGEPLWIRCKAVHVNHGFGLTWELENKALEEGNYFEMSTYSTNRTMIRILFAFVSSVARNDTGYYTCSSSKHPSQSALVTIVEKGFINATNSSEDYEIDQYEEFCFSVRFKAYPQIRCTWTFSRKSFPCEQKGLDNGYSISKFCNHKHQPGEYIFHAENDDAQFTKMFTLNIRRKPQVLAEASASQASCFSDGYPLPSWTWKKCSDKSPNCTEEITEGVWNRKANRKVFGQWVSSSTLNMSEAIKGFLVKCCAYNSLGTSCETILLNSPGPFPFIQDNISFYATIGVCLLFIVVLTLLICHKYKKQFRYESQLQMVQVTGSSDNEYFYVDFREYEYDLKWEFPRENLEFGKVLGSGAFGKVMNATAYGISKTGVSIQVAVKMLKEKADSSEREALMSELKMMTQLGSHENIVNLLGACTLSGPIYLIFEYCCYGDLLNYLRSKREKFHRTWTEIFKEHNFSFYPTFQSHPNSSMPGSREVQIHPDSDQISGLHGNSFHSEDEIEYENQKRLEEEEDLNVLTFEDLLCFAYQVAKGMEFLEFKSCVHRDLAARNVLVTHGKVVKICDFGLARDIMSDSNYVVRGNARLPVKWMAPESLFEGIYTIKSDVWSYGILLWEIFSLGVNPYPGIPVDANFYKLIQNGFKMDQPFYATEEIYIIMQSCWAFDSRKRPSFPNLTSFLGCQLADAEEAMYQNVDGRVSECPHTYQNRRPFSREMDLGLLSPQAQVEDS
# GAK = target: T4, GAK (Homo sapiens, UniProt O14976); assay: KinomeScan competition binding assay; conditions: 10 μM levosimendan
# T4 construct: DiscoverX KinomeScan panel kinase
# T4 sequence (O14976 2-1311): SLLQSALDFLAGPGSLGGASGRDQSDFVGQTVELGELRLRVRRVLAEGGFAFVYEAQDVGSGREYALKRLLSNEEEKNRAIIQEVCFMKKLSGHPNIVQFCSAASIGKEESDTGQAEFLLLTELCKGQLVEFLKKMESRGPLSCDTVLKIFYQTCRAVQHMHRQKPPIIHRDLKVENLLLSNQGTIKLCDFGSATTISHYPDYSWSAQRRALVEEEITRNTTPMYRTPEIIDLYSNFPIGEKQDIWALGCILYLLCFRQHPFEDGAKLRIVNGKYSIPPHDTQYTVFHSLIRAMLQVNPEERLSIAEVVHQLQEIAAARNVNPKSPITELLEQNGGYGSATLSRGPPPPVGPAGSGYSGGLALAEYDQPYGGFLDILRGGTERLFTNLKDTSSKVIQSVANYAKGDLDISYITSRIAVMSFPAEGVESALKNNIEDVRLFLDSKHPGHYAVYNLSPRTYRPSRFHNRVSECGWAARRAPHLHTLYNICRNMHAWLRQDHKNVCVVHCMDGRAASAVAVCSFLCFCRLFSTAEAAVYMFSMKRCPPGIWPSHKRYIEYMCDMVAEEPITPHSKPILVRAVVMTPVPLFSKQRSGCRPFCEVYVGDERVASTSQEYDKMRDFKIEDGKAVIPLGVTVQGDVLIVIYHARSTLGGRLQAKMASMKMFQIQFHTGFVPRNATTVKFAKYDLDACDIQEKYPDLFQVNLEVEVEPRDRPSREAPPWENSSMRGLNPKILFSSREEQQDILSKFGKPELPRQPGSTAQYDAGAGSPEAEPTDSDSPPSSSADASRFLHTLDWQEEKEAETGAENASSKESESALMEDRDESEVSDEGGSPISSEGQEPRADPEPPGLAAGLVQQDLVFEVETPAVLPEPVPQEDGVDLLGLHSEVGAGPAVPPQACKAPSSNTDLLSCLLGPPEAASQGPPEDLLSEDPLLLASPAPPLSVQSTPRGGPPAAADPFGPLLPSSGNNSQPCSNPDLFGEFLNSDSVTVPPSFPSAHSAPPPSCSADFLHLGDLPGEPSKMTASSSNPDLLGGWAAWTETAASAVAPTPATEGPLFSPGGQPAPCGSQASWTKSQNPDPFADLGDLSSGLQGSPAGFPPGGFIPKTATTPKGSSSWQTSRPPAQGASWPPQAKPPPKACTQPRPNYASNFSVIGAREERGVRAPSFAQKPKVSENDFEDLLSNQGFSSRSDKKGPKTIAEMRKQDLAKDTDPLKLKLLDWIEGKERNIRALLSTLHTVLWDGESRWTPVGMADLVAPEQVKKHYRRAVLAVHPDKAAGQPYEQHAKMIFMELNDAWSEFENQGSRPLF
# TT = assay: cells; set-up: species or system panel of human cancer cell lines; Eurofins OncoPanel proliferation; nuclei count by high-content fluorescence imaging, 10-point dose response; conditions: Homo sapiens, TT, 72 h, cell count, 3 days
# Outline: (§1)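 Ten half-log concentrations from 100 μM (0.1% DMSO max) applied one day post-seeding, 3-day exposure at 37°C; untreated time-zero plate for GI50. Readout is nuclear cell count by automated fluorescence imaging, giving EC50, IC50, GI50 and 0–10 activity area.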
# MHH-PREB-1 = assay: cells; set-up: species or system panel of human cancer cell lines; Eurofins OncoPanel proliferation; nuclei count by high-content fluorescence imaging, 10-point dose response; conditions: Homo sapiens, MHH-PREB-1, 72 h, cell count, 3 days
# Outline: as §1
# Y79 = assay: cells; set-up: species or system panel of human cancer cell lines; Eurofins OncoPanel proliferation; nuclei count by high-content fluorescence imaging, 10-point dose response; conditions: Homo sapiens, Y79, 72 h, cell count, 3 days
# Outline: as §1
# Jurkat = assay: cells; set-up: species or system panel of human cancer cell lines; Eurofins OncoPanel proliferation; nuclei count by high-content fluorescence imaging, 10-point dose response; conditions: Homo sapiens, Jurkat, 72 h, cell count, 3 days
# Outline: as §1
# CCF-STTG1 = assay: cells; set-up: species or system panel of human cancer cell lines; Eurofins OncoPanel proliferation; nuclei count by high-content fluorescence imaging, 10-point dose response; conditions: Homo sapiens, CCF-STTG1, 72 h, cell count, 3 days
# Outline: as §1
# DLD-1 = assay: cells; set-up: species or system panel of human cancer cell lines; Eurofins OncoPanel proliferation; nuclei count by high-content fluorescence imaging, 10-point dose response; conditions: Homo sapiens, DLD-1, 72 h, cell count, 3 days
# Outline: as §1
# Hs 229.T = assay: cells; set-up: species or system panel of human cancer cell lines; Eurofins OncoPanel proliferation; nuclei count by high-content fluorescence imaging, 10-point dose response; conditions: 72 h, cell count, 3 days
# Outline: as §1
# A388 = assay: cells; set-up: species or system panel of human cancer cell lines; Eurofins OncoPanel proliferation; nuclei count by high-content fluorescence imaging, 10-point dose response; conditions: 72 h, cell count, 3 days
# Outline: as §1
# Mia PaCa-2 = assay: cells; set-up: species or system panel of human cancer cell lines; Eurofins OncoPanel proliferation; nuclei count by high-content fluorescence imaging, 10-point dose response; conditions: Homo sapiens, MIA PaCa-2, 72 h, cell count, 3 days
# Outline: as §1
# MX-1 = assay: cells; set-up: species or system panel of human cancer cell lines; Eurofins OncoPanel proliferation; nuclei count by high-content fluorescence imaging, 10-point dose response; conditions: Homo sapiens, MX1, 72 h, cell count, 3 days
# Outline: as §1
# HT1376 = assay: cells; set-up: species or system panel of human cancer cell lines; Eurofins OncoPanel proliferation; nuclei count by high-content fluorescence imaging, 10-point dose response; conditions: Homo sapiens, HT-1376, 72 h, cell count, 3 days
# Outline: as §1
# [2] = 50% of maximum possible response
# T1 sequence (Q13163 whole entry): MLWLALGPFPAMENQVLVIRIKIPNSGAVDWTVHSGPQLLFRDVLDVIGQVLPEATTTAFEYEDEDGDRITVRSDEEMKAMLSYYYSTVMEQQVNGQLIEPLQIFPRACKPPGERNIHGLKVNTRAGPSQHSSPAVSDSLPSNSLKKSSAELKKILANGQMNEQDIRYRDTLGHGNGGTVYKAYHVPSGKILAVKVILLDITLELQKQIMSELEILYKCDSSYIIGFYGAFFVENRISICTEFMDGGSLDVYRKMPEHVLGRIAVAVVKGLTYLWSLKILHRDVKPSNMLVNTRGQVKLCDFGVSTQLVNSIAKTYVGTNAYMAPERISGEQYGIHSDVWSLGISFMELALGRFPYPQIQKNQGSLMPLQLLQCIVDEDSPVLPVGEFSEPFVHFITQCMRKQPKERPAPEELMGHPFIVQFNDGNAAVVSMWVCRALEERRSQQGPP
structure (smiles),measurement,setting,value
C[C@@H]1CC(=O)NN=C1c1ccc(NN=C(C#N)C#N)cc1 [levosimendan],percentage control at 10 μM,MAP2K5,< 30.0%
same,Kd,[1],0.82 µM
same,percentage control at 10 μM,PIP5K1A,< 30.0%
same,percentage control at 10 μM,FLT3,< 30.0%
same,percentage control at 10 μM,GAK,< 30.0%
same,IC50,TT; [2],> 100 µM
same,GI50,TT; corrected for time zero,14.3 µM
same,EC50,TT; curve inflection point,> 100 µM
same,IC50,MHH-PREB-1; [2],7.64 µM
same,GI50,MHH-PREB-1; corrected for time zero,7.08 µM
same,EC50,MHH-PREB-1; curve inflection point,7.4 µM
same,IC50,Y79; [2],36.2 µM
same,GI50,Y79; corrected for time zero,16 µM
same,EC50,Y79; curve inflection point,32.8 µM
same,IC50,Jurkat; [2],22.1 µM
same,GI50,Jurkat; corrected for time zero,18.2 µM
same,EC50,Jurkat; curve inflection point,22.1 µM
same,IC50,CCF-STTG1; [2],> 100 µM
same,GI50,CCF-STTG1; corrected for time zero,> 100 µM
same,EC50,CCF-STTG1; curve inflection point,> 100 µM
same,IC50,DLD-1; [2],25.1 µM
same,GI50,DLD-1; corrected for time zero,23.7 µM
same,EC50,DLD-1; curve inflection point,23.9 µM
same,IC50,Hs 229.T; [2],100 µM
same,GI50,Hs 229.T; corrected for time zero,60.3 µM
same,EC50,Hs 229.T; curve inflection point,100 µM
same,IC50,A388; [2],61.1 µM
same,GI50,A388; corrected for time zero,48.4 µM
same,EC50,A388; curve inflection point,61.1 µM
same,IC50,Mia PaCa-2; [2],11 µM
same,GI50,Mia PaCa-2; corrected for time zero,9.38 µM
same,EC50,Mia PaCa-2; curve inflection point,9.92 µM
same,IC50,MX-1; [2],40.4 µM
same,GI50,MX-1; corrected for time zero,37 µM
same,EC50,MX-1; curve inflection point,40.4 µM
same,IC50,HT1376; [2],> 100 µM
same,GI50,HT1376; corrected for time zero,> 100 µM
same,EC50,HT1376; curve inflection point,> 100 µM
